One series has as its target T1, ER (Homo sapiens, UniProt P03372).
T1 sequence (P03372 1-595): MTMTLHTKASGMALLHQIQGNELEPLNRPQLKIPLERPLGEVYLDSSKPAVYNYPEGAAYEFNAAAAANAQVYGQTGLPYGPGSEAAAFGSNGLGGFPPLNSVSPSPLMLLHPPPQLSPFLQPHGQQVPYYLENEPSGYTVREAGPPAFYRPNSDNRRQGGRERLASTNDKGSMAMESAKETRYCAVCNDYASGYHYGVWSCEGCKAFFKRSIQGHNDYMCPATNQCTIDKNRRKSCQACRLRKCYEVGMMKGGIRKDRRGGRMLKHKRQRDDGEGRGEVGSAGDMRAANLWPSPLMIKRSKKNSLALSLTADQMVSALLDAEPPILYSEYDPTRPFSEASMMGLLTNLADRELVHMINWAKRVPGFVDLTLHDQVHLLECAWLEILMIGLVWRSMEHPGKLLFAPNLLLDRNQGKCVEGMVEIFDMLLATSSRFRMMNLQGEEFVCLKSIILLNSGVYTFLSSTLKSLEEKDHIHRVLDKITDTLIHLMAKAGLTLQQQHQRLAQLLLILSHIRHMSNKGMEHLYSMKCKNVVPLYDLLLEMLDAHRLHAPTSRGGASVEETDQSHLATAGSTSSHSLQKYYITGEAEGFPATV
The conditions noted are these: intramuscular injection monthly; cited from earlier work.

Series [1] in a line: Solubility test in pH 1.2 or pH 6.8 buffer (saturated solutions, HPLC; remaining solids by XRPD). The conditions noted are these: for XRPD analysis of remaining solids after solubility test: 24 hours, medium not stated; for XRPD patterns at 24 h: remaining solid. Format: physicochemical. The procedure:
For solubility test: About 20 mg of Compound FA, L-lysine salt and meglumine salt (Form I) were weighed into vials, added 3 mL of pH1.2 or pH 6.8 buffer to make saturated solutions. All suspensions were kept shaking with 200 rpm at room temperature for up to 24 hours. […] At 24 hours, remaining solids were collected and determined by XRPD.

Series [2] is described as follows: Solid stability test at 40° C./75% RH for 8 days (HPLC, XRPD). In kind it is physicochemical. The conditions noted are these: for Physical and chemical stability / XRPD patterns after storage: 40° C./75% RH for 8 days; for Purity at 8 days / Purity at 0 day: HPLC; for Purity at 8 days: after 40° C./75% RH for 8 days; for Purity at 0 day: start of stability test. The protocol:
HPLC ANALYSIS: a representative HPLC method is shown below, which can be used, for example, to analyze the purity, solubility, and stability of the salts herein.
For stability test: About 20 mg of Compound FA, L-lysine salt and meglumine salt (Form I) were weighed into vials, and put at the condition of 40° C./75% RH for 8 days. At 0 and 8 days, the solid sample was dissolved using acetonitrile/water (1/1) to make a solution with the concentration of 0.2 mg/mL. Sample solutions were analyzed by HPLC and solid samples were examined by XRPD.

Series [3] can be described thus: Dynamic moisture sorption analysis (DVS). In kind it is physicochemical. The protocol: Dynamic moisture sorption analysis (DVS): DVS was determined using IGAsorp (Hiden Isochema, UK). The sample was tested at a targeted RH (relative humidity) of 10 to 90% full cycle in step mode. The analysis was performed in 10% RH increments.
The subject of another series is ER+ breast cancer cells. The conditions noted are these: cited from earlier work.
For series [4] the following is noted: compared with fulvestrant, GDC-0810 and AZD9496; cited from earlier work.
Series [5] is described as follows: Solid stability test of Form I at 25° C./92.5% RH for 10 days (XRPD). Format: physicochemical. The procedure:
Solid stability test of Form I at 92.5% RH for 10 days: About 20 mg of meglumine salt Form I was put into the condition of 25° C./92.5% RH for 10 days. At 10 days, the sample was analyzed by XRPD.

Series [6] in a line: Meglumine salt form interconversion study (slurry in IPA or water, XRPD). Format: physicochemical. The conditions noted are these: for Final crystal form: Water. The protocol: Interconversion study: Interconversion studies were carried out by mixing the same amount of different form solids in IPA or water, respectively. Suspensions were kept stirring at room temperature and 60° C. for several days, during which suspensions were filtrated and analyzed by XRPD.

Series [7] in a line: Physical treatment (grinding) of Form I. Format: physicochemical. The conditions noted are these: grinded for 2 min and 5 min. The procedure: Physical treatment of Form I: Form I of meglumine salt was grinded for 2 min and 5 min. After grinding, the crystallinity declined, but the crystal form was still Form I.

Molecules are shown by their SMILES. Counter-ions that a name gives are not always drawn.

As for `C[C@]12CC[C@@H]3c4ccc(O)cc4C[C@@H](CCCCCCCCC[S+]([O-])CCCC(F)(F)C(F)(F)F)[C@H]3[C@@H]1CC[C@@H]2O` (stereo partly drawn) [fulvestrant], the “ER degradation in clinical samples” value at ER is on record as approximately 50%.
Consider `C[C@@H]1Cc2c([nH]c3ccccc23)[C@@H](c2c(Cl)cc(/C=C/C(=O)O)cc2Cl)N1CC(C)(C)F` [Compound FA, (E)-3-(3,5-dichloro-4-((1R,3R)-2-(2-fluoro-2-methylpropyl)-3-methyl-2,3,4,9-tetrahydro-1H-pyrido[3,4-b]indol-1-yl)phenyl)acrylic acid], for which the “XRPD analysis of remaining solids after solubility test” value in [1] is “became lower”. In [1] (pH 1.2 buffer), the “Stability in pH 1.2 buffer solution (HPLC)” value is “unstable” and the “XRPD patterns at 24 h” value was “Low crystallinity”. In addition, in series [1] (pH 6.8 buffer), the “XRPD patterns at 24 h” value is reported as “Low crystallinity”. Moreover, in series [2], the “Physical and chemical stability” value is “physically and chemically stable”; the “XRPD patterns after storage” value is reported as “not changed”; the “Purity at 8 days” value amounted to 96.31 Area %; the “Purity at 0 day” value is 98.02 Area %. In addition, in [3], the “XRPD pattern after DVS test” value is given as “didn't change”. In series [3] (at 80% RH), the “Moisture adsorbed (DVS)” value is recorded as “about 1.7%”. Also, the “Growth of ER+ breast cancer cells” value in the series with ER+ breast cancer cells is “inhibited the growth”. Moreover, the Human hepatocyte clearance result in series [4] is listed as “better human hepatocyte clearance”.
As for `C[C@@H]1Cc2c([nH]c3ccccc23)[C@@H](c2c(Cl)cc(/C=C/C(=O)O)cc2Cl)N1CC(C)(C)F` [Meglumine salt, Meglumine (E)-3-(3,5-dichloro-4-((1R,3R)-2-(2-fluoro-2-methylpropyl)-3-methyl-2,3,4,9-tetrahydro-1H-pyrido[3,4-b]indol-1-yl)phenyl)acrylate], the “XRPD analysis of remaining solids after solubility test” value in [1] is “became lower”. Further, in series [1] (pH 1.2 buffer), the “Stability in pH 1.2 buffer solution (HPLC)” value is recorded as “unstable” and the “XRPD patterns at 24 h” value is listed as “No change”. The “XRPD patterns at 24 h” value in series [1] (pH 6.8 buffer) was “Low crystallinity”. In [2], the “Physical and chemical stability” value is “physically and chemically stable”; the “XRPD patterns after storage” value was “not changed”; the “Purity at 8 days” value is listed as 99.66 Area %; the “Purity at 0 day” value is on record as 99.68 Area %. Besides, the “Crystal form after storage (XRPD)” value in series [5] was “remained unchanged”. Also, the Final crystal form entry in series [6] (25° C.) is listed as “Dihydrate”. For the same molecule, the Final crystal form entry in series [6] (60° C.) was “Form I”. The “Relative stability of crystal forms” value in [6] (in water at 60° C. and IPA) is listed as “most stable crystal form”. For the same molecule, in [7], the “Crystal form after grinding” value is “still Form I” and the Crystallinity after grinding entry is “declined”.

Values taken from patent US11903931B2, “Salts of selective estrogen receptor degraders” (InventisBio Co., Ltd., priority 2018, dated 2024).
